Counter-ions that a name gives are not always drawn. Like-named read-outs stand apart in the source and are kept apart here.
Key:
Type in all cases: biochemical
recombinant PRL-3 = biological target: T1, recombinant PRL-3 (Homo sapiens, UniProt O75365); experiment: In vitro phosphatase assay (DiFMUP hydrolysis), PRL-3
T1 construct: 6xHis (N, cleaved yes); made in house; host or cells: E. coli One Shot BL21 Star

recombinant PRL-1 = biological target: T2, recombinant PRL-1 (Homo sapiens, UniProt Q93096); experiment: In vitro phosphatase assay (DiFMUP hydrolysis), PRL-1
T2 construct: 6xHis (N, cleaved yes); made in house; host or cells: E. coli One Shot BL21 Star
T2 sequence (Q93096 1-173): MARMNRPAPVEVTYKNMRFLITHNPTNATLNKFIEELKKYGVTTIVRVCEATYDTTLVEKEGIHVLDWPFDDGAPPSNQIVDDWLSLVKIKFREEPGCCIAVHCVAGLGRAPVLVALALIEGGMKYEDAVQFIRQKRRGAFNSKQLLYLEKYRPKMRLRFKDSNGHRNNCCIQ

recombinant PRL-2 = biological target: T3, recombinant PRL-2 (Homo sapiens, UniProt Q12974); experiment: In vitro phosphatase assay (DiFMUP hydrolysis), PRL-2;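 note: PRL-2 activity read as DiFMUP hydrolysis after 20 min at room temperature with drug, enzyme first pre-reduced at 4 °C for 20 min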
T3 construct: 6xHis (N, cleaved yes); made in house; host or cells: E. coli One Shot BL21 Star
T3 sequence (Q12974 1-167): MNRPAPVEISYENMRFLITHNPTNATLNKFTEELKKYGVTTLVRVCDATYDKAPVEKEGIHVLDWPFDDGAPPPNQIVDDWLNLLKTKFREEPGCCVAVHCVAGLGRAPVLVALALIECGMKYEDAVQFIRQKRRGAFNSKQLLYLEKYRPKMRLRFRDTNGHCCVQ

[1] = FDA-approved drug screen, compared to DMSO
[2] = FDA-approved drug screen, activity compared to DMSO

T1 sequence (O75365 whole entry): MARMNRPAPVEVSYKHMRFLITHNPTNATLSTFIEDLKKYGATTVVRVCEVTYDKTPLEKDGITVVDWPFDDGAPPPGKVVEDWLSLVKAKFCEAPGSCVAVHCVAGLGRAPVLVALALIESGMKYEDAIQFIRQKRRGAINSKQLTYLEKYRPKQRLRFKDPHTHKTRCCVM

SMILES	% Phosphatase Activity (compared to DMSO) PRL-3 (recombinant PRL-3; [1]) [%]	% Phosphatase Activity (compared to DMSO) PRL-1 (recombinant PRL-1; [1]) [%]	% Phosphatase Activity (compared to DMSO) PRL-2 (recombinant PRL-2; [1]) [%]	further results
CNS(=O)(=O)C[C@H]1CC[C@H](N(C)c2ncnc3[nH]ccc23)CC1 [Oclacitinib]	80	98	81	
CCCc1nn(C)c2c(=O)[nH]c(-c3cc(S(=O)(=O)N4CCN(C)CC4)ccc3OCC)nc12 [Sildenafil Citrate]				% Phosphatase Activity (compared to DMSO) PRL-3 (recombinant PRL-3; [2]): 84%; % Phosphatase Activity (compared to DMSO) PRL-1 (recombinant PRL-1; [2]): 100%; % Phosphatase Activity (compared to DMSO) PRL-2 (recombinant PRL-2; [2]): 88%
CN(CCOc1ccc(CC2SC(=O)NC2=O)cc1)c1ccccn1.Cl (stereo not drawn) [Rosiglitazone HCl]	79	103	116	
CS(=O)(=O)c1ccc([C@@H](O)[C@@H](CO)NC(=O)C(Cl)Cl)cc1 [Thiamphenicol]				% Phosphatase Activity (compared to DMSO) PRL-3 (recombinant PRL-3; [2]): 81%; % Phosphatase Activity (compared to DMSO) PRL-1 (recombinant PRL-1; [2]): 103%; % Phosphatase Activity (compared to DMSO) PRL-2 (recombinant PRL-2; [2]): 125%
C[C@H]1COc2c(N3CCN(C)CC3)c(F)cc3c(=O)c(C(=O)O)cn1c23 [Levofloxacin hydrate]	316	322	306	
O=C(NC1CCN(CCCCC2(C(=O)NCC(F)(F)F)c3ccccc3-c3ccccc32)CC1)c1ccccc1-c1ccc(C(F)(F)F)cc1 [Lomitapide Mesylate]	125	129	119	
CC(=O)O[C@]1(C(C)=O)CC[C@H]2[C@@H]3C=C(C)C4=CC(=O)CC[C@]4(C)[C@H]3CC[C@@]21C [Megestrol Acetate]	67	86	92	
O.O.O.O.O=C([O-])CC(O)(CC(=O)[O-])C(=O)[O-].[Li+].[Li+].[Li+] [Citric acid trilithium salt tetrahydrate]	89	93	92	
CC(C)n1c(/C=C/C(O)CC(O)CC(=O)O)c(-c2ccc(F)cc2)c2ccccc21 (stereo not drawn) [Fluvastatin Sodium]	89	81	95	
COc1ccc(-c2ccc3cc(C(=O)O)ccc3c2)cc1C12CC3CC(CC(C3)C1)C2 [Adapalene]	68	183	141	
O=C(CCCCCCC(=O)Nc1ccccc1)NO [Vorinostat (SAHA, MK0683)]				% Phosphatase Activity (compared to DMSO) PRL-3 (recombinant PRL-3; [2]): 92%; % Phosphatase Activity (compared to DMSO) PRL-1 (recombinant PRL-1; [2]): 98%; % Phosphatase Activity (compared to DMSO) PRL-2 (recombinant PRL-2; [2]): 89%
COc1cc(C2Oc3cc([C@H]4Oc5cc(O)cc(O)c5C(=O)[C@@H]4O)ccc3OC2CO)ccc1O (stereo partly drawn) [Silibinin]				% Phosphatase Activity (compared to DMSO) PRL-3 (recombinant PRL-3; [2]): 87%; % Phosphatase Activity (compared to DMSO) PRL-1 (recombinant PRL-1; [2]): 88%; % Phosphatase Activity (compared to DMSO) PRL-2 (recombinant PRL-2; [2]): 87%
O=[N+]([O-])C(Br)(CO)CO [Bronopol]	86	103	96	
CCCCC(CC)COC(=O)CC(C(=O)OCC(CC)CCCC)S(=O)(=O)O (stereo not drawn) [Docusate Sodium, reference compound]				% Phosphatase Activity (compared to DMSO) PRL-3 (recombinant PRL-3): 34%; IC50 (recombinant PRL-3; 2.5 µM protein, DiFMUP at KM, read-out: Calculated IC50, PRL-3 phosphatase activity): 43 ± 5 µM; % Phosphatase Activity (compared to DMSO) PRL-1 (recombinant PRL-1): 64%; IC50 (recombinant PRL-1; 2.5 µM protein, DiFMUP at KM, read-out: Calculated IC50, PRL-1 phosphatase activity): 94 ± 26 µM; % Phosphatase Activity (compared to DMSO) PRL-2 (recombinant PRL-2): 63%; IC50 (recombinant PRL-2; 2.5 µM protein, DiFMUP at KM, read-out: Calculated IC50, PRL-2 phosphatase activity): 140 ± 44 µM
CCCN1CCCC[C@H]1C(=O)Nc1c(C)cccc1C [Ropivacaine HCl]	80	100	110	
CC[C@H](Nc1ncnc2[nH]cnc12)c1nc2cccc(F)c2c(=O)n1-c1ccccc1 [CAL-101 (Idelalisib, GS-1101)]	77	102	104	

SMILES	% Phosphatase Activity (compared to DMSO) PRL-3 (recombinant PRL-3; [1]) [%]	% Phosphatase Activity (compared to DMSO) PRL-1 (recombinant PRL-1; [1]) [%]	% Phosphatase Activity (compared to DMSO) PRL-2 (recombinant PRL-2; [1]) [%]	further results
NC(=O)C[S@@+]([O-])C(c1ccccc1)c1ccccc1 [Armodafinil]	73	94	90	
CC(CCc1ccc(O)cc1)NCC(O)c1ccc(O)cc1.Cl (racemic) [Ractopamine HCl]	100	103	113	
O=C(NC[C@H]1CN(c2ccc(N3CCOCC3=O)cc2)C(=O)O1)c1ccc(Cl)s1 [Rivaroxaban]	92	98	106	
NC(=O)CN1CCCC1=O [Piracetam]	83	98	96	
CCCc1nn(C)c2c(=O)[nH]c(-c3cc(S(=O)(=O)N4CCN(C)CC4)ccc3OCC)nc12.CS(=O)(=O)O [Sildenafil Mesylate]				% Phosphatase Activity (compared to DMSO) PRL-3 (recombinant PRL-3; [2]): 94%; % Phosphatase Activity (compared to DMSO) PRL-1 (recombinant PRL-1; [2]): 94%; % Phosphatase Activity (compared to DMSO) PRL-2 (recombinant PRL-2; [2]): 79%
CC[C@H](CO)Nc1nc(NCc2ccccc2)c2ncn(C(C)C)c2n1 [Roscovitine (Seliciclib,CYC202)]				% Phosphatase Activity (compared to DMSO) PRL-3 (recombinant PRL-3): 96%; % Phosphatase Activity (compared to DMSO) PRL-1 (recombinant PRL-1): 108%; % Phosphatase Activity (compared to DMSO) PRL-2 (recombinant PRL-2): 111%
Cc1c(O)cccc1C(=O)N[C@@H](CSc1ccccc1)[C@H](O)CN1C[C@H]2CCCC[C@H]2C[C@H]1C(=O)NC(C)(C)C [Nelfinavir Mesylate]	79	102	91	
CC1(C)S[C@@H]2[C@H](NC(=O)[C@H](N)c3ccc(O)cc3)C(=O)N2[C@H]1C(=O)[O-].[Na+] [Amoxicillin Sodium]				% Phosphatase Activity (compared to DMSO) PRL-3 (recombinant PRL-3): 80%; % Phosphatase Activity (compared to DMSO) PRL-1 (recombinant PRL-1): 97%; % Phosphatase Activity (compared to DMSO) PRL-2 (recombinant PRL-2): 114%
CCCN1C[C@H](CSC)C[C@@H]2c3cccc4[nH]cc(c34)C[C@H]21 [Pergolide mesylate]	90	109	119	
OC1(c2ccc(Cl)c(C(F)(F)F)c2)CCN(CCCC(c2ccc(F)cc2)c2ccc(F)cc2)CC1 [Penfluridol]	89	100	128	
C[C@H]1COc2c(N3CCN(C)CC3)c(F)cc3c(=O)c(C(=O)O)cn1c23 [Levofloxacin]	238	264	314	
CN(C)CCc1c[nH]c2ccc(CS(=O)(=O)N3CCCC3)cc12.O=C(O)CC(O)C(=O)O [Almotriptan Malate]	68	97	114	
CCOc1ccc2ccccc2c1C(=O)N[C@@H]1C(=O)N2[C@@H]1SC(C)(C)[C@@H]2C(=O)O [Nafcillin Sodium]	60	98	108	
O=C(O)c1cc(O)c(O)c(O)c1 [Gallic acid]	80	100	76	
Nc1nc(O)c2ncn(COC(CO)CO)c2n1 [Ganciclovir]	99	90	98	
C[C@@H]1CC[C@H]2[C@@H](C)C(=O)O[C@@H]3O[C@@]4(C)CC[C@@H]1[C@]32OO4 [Artemisinin]	80	100	90	
